Tests used:
Assay type in all cases: cell-based
mouse mammary organoids = assay: RNA sequencing of mouse mammary organoids stimulated ex vivo with R5020; details: R5020 20 nM, 6 h, n = 3
Description: To test this hypothesis, we sought for biological readouts in physiologically relevant models. First, we recurred to using an ex vivo assay for the transcriptional response of the mouse mammary epithelium to hormones. We isolated mammary glands from several inbred adult female mice, treated them mechanically and enzymatically to generate epithelial‐enriched organoids, which remain hormone‐responsive (Ayyanan et al, 2011), and exposed them either to vehicle or to the stable progesterone mimic promegestone (R5020, 20 nM) for 6 h and performed RNA sequencing (Fig 1A). Three independent experiments were performed, and principal component analysis (PCA) grouped the samples according to treatment (Fig 1B). […] Together, these observations confirm that PR signaling is intact in this ex vivo model and that the functionally important factors, Rankl and Wnt4, are robust PR target genes in the mouse mammary epithelium.
(§1) Animal experiments were performed in accordance with protocol approved by the Service de la Consommation et des Affaires vétérinaires of Canton de Vaud (VD 1865.3, VD 1865.4). NOD. Cg‐Prkdc^scid Il2rg^tm1Wjl/SzJ mice (Charles River), BalbC, and C57Bl6 breeders were purchased from Jackson Laboratories. Mammary glands were isolated from 18‐ to 35‐week‐old mice, lymph nodes removed, minced with surgical blades, and digested in DMEM/F12, 1% penicillin/streptomycin B with collagenase A 0.25 mg/ml (Roche). Tissue was concomitantly stimulated with hormones for 1, 2, or 6 h and centrifuged at 652 g for 5 min. Fat was removed, and pellet containing organoids washed with phosphate‐buffered saline (PBS), resuspended 5 min in 3 ml red cell blood lysis buffer and washed twice with PBS.
(§2) RNAseq libraries were prepared using Truseq Stranded RNA producing single‐end reads of 100 bp and sequenced on Illumina Hiseq 2500 instrument. […]
(§3) Sequencing reads were quality controlled using FastQC (v0.11.8) (Wingett & Andrews, 2018). Mouse raw reads were aligned to the mouse genome (mm9) and human raw reads to the human genome (hg19) using TopHat (v2.0.11) (Kim et al, 2013). […]

Rankl [1] = assay: Rankl transcript levels by RT-PCR in mouse mammary organoids stimulated ex vivo
Description: (§4) Next, we stimulated mouse mammary organoids derived from several BalbC females with R5020 or different progestins (Fig 1A). […] No significant change in Rankl and Wnt4 transcript levels was detected during the first 2 h (Appendix Fig S1D). By 6 h of R5020 stimulation, Rankl and Wnt4 transcript levels increased 22.4 and 5.8‐fold over the vehicle‐treated control, respectively.
as §1, with “Tissue was concomitantly stimulated with hormones for 1, 2, or 6 h and centrifuged at 652 g for 5 min.” left out
(§5) Human breast microstructures and mouse organoids were homogenized in Trizol (Invitrogen). Aqueous phase containing RNA was chloroform extracted and processed with miRNeasy extraction kit (Qiagen). cDNA was synthesized using random p(dN)6 primers (Roche) and MMLV reverse transcriptase (Invitrogen). SYBR Green PCR Core Reagent System (Qiagen) was used for semi‐quantitative real time (RT‐PCR) using the following primers.

Wnt4 [2] = assay: Wnt4 transcript levels by RT-PCR in mouse mammary organoids stimulated ex vivo
Description: as §4
as §1, with “Tissue was concomitantly stimulated with hormones for 1, 2, or 6 h and centrifuged at 652 g for 5 min.” left out
as §5

[3] = test system: human breast tissue microstructures (EpCAM+ cells); assay: RNA sequencing of EpCAM+ cells from human breast tissue microstructures stimulated ex vivo; details: 14–18 h exposure, n = 3
Description: Having ascertained with mammary tissue from inbred mice that androgenic and anti‐androgenic progestins have different effects on the expression of important PR target genes, we set out to assess the transcriptional response to PR signaling in the human breast epithelium. In view of our goal to perform in vivo experiments with the natural ligand progesterone, we compared the effects of progesterone to those of its stable analog R5020 which is commonly used for in vitro experiments on breast epithelial cells. For this, we used an ex vivo approach with human breast tissue similar to the mouse organoid technique used above that maintains hormone responsiveness (Tanos et al, 2013; Sflomos et al, 2015). In brief, 3 fresh mammoplasty tissue from women with follicular phase progesterone levels were cut into 1 mm^3 pieces and aliquoted for digestion with collagenase and concomitant exposure to either vehicle, R5020, or progesterone for 14–18 h. Tissue microstructures that contain epithelial cells, immune cells, and fibroblasts in varying proportions were recovered. To reduce interpatient variation as far as it relates to different ratios of various cell types, at the end of the treatment, the tissue microstructures were dissociated to single cells and enriched for epithelial cells by FACS sorting with antibodies against the epithelial cell surface marker EpCAM (Fig 2A). The EpCAM^+ cells were processed for RNA sequencing. […] Progesterone affected expression levels of 65 genes, whereas R5020 affected 112 genes, including RANKL (adj.P < 0.05) (Appendix Fig S2A). More than 90% of the progesterone‐induced gene expression changes were induced by R5020 (Fig 2C). […] R5020 induced higher‐fold changes as indicated by the estimated slope of the curve being > 1 (P < 0.0001). […]
All experiments conformed to the principles set out in the WMA Declaration of Helsinki and the Department of Health and Human Services Belmont Report. […] Human tissue samples were mechanically and enzymatically dissociated, single cells were prepared, counted, and spin infected using Lenti‐ONE CMV‐GFP(2A)Luc2 WPRE VSV, V621004001, or pR980 Luc2GFP (GEGTECH) at a multiplicity of infection of 1 at 2.500 rpm for 3 h at room temperature in 500 μl of serum‐free medium. […]
as §2, §3

Rankl [4] = assay: Rankl induction by R5020 or LNG in mouse mammary organoids co-treated with AR antagonists; details: antagonist 100 µM, 6 h, C57Bl6-derived organoids
Description: (§6) Enzalutamide (100 µM) abrogated Rankl induction by R5020 (P < 0.05) but had no effect on Wnt4 induction (Fig 1H).
as §1, §5

Wnt4 [5] = assay: Wnt4 induction by R5020 or LNG in mouse mammary organoids co-treated with AR antagonists; details: antagonist 100 µM, 6 h, C57Bl6-derived organoids
Description: as §6, §1, §5

[6] = BalbC females, 6 h of stimulation
[7] = BalbC-derived organoids, 24 h of stimulation

In the case of `CCC(=O)[C@@]1(C)CC[C@H]2[C@@H]3CCC4=CC(=O)CCC4=C3CC[C@@]21C` [R5020, promegestone], the “Pgr transcripts, down-modulation (RNA sequencing)” value (mouse mammary organoids) was 0.2 fold, the “Rankl transcripts, induction over control samples (RNA sequencing)” value (mouse mammary organoids) was 10.07 fold and the “Wnt4 induction (RNA sequencing)” value (mouse mammary organoids) was 3.1 fold. The “Rankl transcript levels over vehicle-treated control” value (Rankl [1]; [6]) was 22.4 fold, the Rankl transcript induction (Rankl [1]; [7]) was 83 fold and the Rankl transcript induction (Rankl [1]; C57Bl/6 mice, 6 h, 20 nM) was 10.9 fold. For the same molecule, the “Wnt4 transcript levels over vehicle-treated control” value (Wnt4 [2]; [6]) was 5.8 fold, the Wnt4 transcript induction (Wnt4 [2]; [7]) was 26 fold and the Wnt4 transcript induction (Wnt4 [2]; C57Bl/6 mice, 6 h, 20 nM) was 4.2 fold. For the same molecule, the “RANKL expression (variant stabilized gene expression values)” value [3] was “increased expression” and the “WNT4 expression (variant stabilized gene expression values)” value [3] was “increased expression”.

For `CC(O)(CS(=O)(=O)c1ccc(F)cc1)C(=O)Nc1ccc(C#N)c(C(F)(F)F)c1` (stereo not shown) [bicalutamide], the “effect of AR antagonist on Rankl induction by R5020” value (Rankl [4]) was “abrogated” and the “effect of AR antagonist on Wnt4 induction by R5020” value (Wnt4 [5]) was “no significant effect”.
